Assay results reported in publication PMC6764862 (Xenobiotica; the fate of foreign compounds in biological …, 2019).
Like-named read-outs stand apart in the source and are kept apart here.

Columns and labels:
human AhR (hAhR) = molecular target: T1, human AhR (hAhR) (Homo sapiens, UniProt P35869); test: AhR-dependent pXRE-SV40-Luc luciferase reporter in HepG2 cells; format: cell-based; settings: for Relative effect potency (REP) HepG2: EC50-based, relative to TCDD, human system; for maximum response, luciferase activity: concentration-response
T1 sequence (P35869 11-848): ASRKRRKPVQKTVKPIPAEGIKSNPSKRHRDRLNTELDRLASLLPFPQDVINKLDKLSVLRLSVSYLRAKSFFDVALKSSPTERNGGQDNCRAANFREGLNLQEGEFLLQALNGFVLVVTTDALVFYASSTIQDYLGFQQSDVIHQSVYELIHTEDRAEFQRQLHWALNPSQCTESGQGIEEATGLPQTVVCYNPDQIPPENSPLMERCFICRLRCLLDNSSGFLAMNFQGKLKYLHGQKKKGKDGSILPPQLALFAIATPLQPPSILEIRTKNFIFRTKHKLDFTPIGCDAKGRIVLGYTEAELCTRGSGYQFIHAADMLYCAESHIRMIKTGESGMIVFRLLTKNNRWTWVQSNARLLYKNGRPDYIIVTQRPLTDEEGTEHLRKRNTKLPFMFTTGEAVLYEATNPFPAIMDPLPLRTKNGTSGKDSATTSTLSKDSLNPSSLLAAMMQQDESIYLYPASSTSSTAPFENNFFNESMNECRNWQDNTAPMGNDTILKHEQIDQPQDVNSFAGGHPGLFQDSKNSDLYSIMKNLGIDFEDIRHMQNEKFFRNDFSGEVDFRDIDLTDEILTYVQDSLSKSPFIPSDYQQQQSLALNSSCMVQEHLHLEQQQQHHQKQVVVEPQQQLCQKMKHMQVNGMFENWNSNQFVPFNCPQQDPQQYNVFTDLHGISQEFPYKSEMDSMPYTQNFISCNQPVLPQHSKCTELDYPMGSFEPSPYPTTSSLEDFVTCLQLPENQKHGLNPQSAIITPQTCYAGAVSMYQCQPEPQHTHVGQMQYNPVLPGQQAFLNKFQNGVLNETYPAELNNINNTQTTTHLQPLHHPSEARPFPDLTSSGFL

mouse AhR (mAhR) [1] = settings: for REP ratio Hepa1c1c7/HepG2: mouse REP over human REP
mouse AhR (mAhR) [2] = molecular target: T2, mouse AhR (mAhR) (Mus musculus, UniProt P30561); settings: for Relative effect potency (REP) Hepa1c1c7: EC50-based, relative to TCDD, murine system; for maximum response, luciferase activity: concentration-response
T2 sequence (P30561 10-848): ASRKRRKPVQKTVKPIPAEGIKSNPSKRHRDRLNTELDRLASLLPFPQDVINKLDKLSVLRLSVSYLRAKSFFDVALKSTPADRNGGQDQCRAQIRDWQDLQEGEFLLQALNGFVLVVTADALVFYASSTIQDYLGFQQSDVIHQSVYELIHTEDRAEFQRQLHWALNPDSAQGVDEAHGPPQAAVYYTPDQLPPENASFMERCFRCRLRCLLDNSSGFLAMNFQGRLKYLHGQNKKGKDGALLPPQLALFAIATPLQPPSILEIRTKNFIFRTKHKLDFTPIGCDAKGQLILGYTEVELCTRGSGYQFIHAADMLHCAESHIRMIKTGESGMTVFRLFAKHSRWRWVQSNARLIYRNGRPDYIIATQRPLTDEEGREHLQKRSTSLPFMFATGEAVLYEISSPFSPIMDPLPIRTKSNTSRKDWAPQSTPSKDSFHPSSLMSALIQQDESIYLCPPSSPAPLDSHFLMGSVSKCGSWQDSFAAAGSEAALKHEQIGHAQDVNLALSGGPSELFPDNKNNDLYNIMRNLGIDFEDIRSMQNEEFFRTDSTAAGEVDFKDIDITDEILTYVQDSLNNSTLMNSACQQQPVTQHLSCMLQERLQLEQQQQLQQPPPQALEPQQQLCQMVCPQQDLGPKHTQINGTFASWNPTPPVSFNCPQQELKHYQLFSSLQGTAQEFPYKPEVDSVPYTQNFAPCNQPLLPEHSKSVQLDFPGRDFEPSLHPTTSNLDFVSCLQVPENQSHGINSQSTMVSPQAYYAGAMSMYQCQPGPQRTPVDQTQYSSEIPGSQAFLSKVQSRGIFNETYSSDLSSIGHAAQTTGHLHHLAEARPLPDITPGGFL

CYP1A1 (AhR target gene) [3] = test: CYP1A1 mRNA induction in primary human hepatocytes; format: cell-based; settings: primary human hepatocytes
Cyp1a1 (AhR target gene) [4] = test: Cyp1a1 mRNA induction in primary mouse hepatocytes; format: cell-based; settings: primary mouse hepatocytes
EGFR = settings: up to; highest potency of all congeners tested; ref Hardesty et al., 2018; cited from earlier work
[5] = tested on: CYP1A1 mRNA (AhR target gene); test: CYP1A1 mRNA induction in primary human hepatocytes; format: cell-based; settings: human
[6] = tested on: Cyp1a1 mRNA (AhR target gene); test: Cyp1a1 mRNA induction in primary mouse hepatocytes; format: cell-based; settings: male, C57BL/6, mouse
mouse AhR (mAhR) [7] = molecular target: T2, mouse AhR (mAhR); test: in vitro; settings: hepa1c1c7 cells
[8] = read-out: EC50 for AhR luciferase reporter activity, HepG2 cells, 24 h treatment

SMILES	Relative effect potency (REP) HepG2 (human AhR (hAhR))	WHO 2005 TEF fold higher than the human REP (human AhR (hAhR); TEF vs HepG2 REP of this study) [fold]	EC50 (human AhR (hAhR); [8]) [nM]	REP ratio Hepa1c1c7/HepG2 (mouse AhR (mAhR) [1])	Relative effect potency (REP) Hepa1c1c7 (mouse AhR (mAhR) [2])	maximum response, luciferase activity (human AhR (hAhR); HepG2 cells) [fold]	WHO 2005 TEF fold lower than the human REP (human AhR (hAhR); TEF vs HepG2 REP of this study) [fold]	fold higher EC50 in Hepa1c1c7 cells compared to HepG2 cells (mouse AhR (mAhR) [1]; luciferase reporter)	maximum response, luciferase activity (mouse AhR (mAhR) [2]; Hepa1c1c7 cells) [fold]	luciferase activity increase (human AhR (hAhR); HepG2 cells, 10 μM, 24 h, positive controls) [fold]	maximal induction of CYP1A1 mRNA (CYP1A1 (AhR target gene) [3]) [fold]	EC50 (CYP1A1 (AhR target gene) [3]; read-out: EC50 for induction of CYP1A1 mRNA, 24 h) [nM]	maximal induction of Cyp1a1 mRNA (Cyp1a1 (AhR target gene) [4]) [fold]	fold more potent (lower EC50) in Hepa1c1c7 than in HepG2, luciferase reporter (mouse AhR (mAhR) [1]; mAhR vs hAhR, cell lines)	luciferase activity increase (mouse AhR (mAhR) [2]; Hepa1c1c7 cells, 10 μM, 24 h, positive controls) [fold]	IC50 for EGFR inhibition (EGFR) [log M]	EC50 (human AhR (hAhR)) [nM]	EC50 at 24 h [5] [nM]	EC50 at 24 h [6] [nM]	maximal fold induction at 24 h (mouse AhR (mAhR) [7])
Clc1cc(-c2cc(Cl)c(Cl)c(Cl)c2)cc(Cl)c1Cl [PCB 169]	≤ 0.00005	> 300	≥ 7000	≥ 20	0.001															
Clc1ccc(-c2cc(Cl)c(Cl)c(Cl)c2)cc1 [PCB 81]	0.06		6.8 ± 2.7	0.015	0.0009	34.6	200	approximately 5 fold	2.3											
Clc1ccc(-c2cc(Cl)c(Cl)c(Cl)c2)cc1Cl [PCB 126]	0.002	50	250 ± 150	3	0.006	31.6			5.9	42	45.1	195 ± 35	53.3	approximately 53 fold	3.7	−16.07 ± 0.31				
Clc1cc2c(cc1Cl)Oc1cc(Cl)c(Cl)cc1O2 [TCDD, 2,3,7,8-tetrachlorodibenzo-p-dioxin, reference compound]	1			1		83											0.4 ± 0.1	0.45 ± 0.34	0.04 ± 0.02	2.2
Clc1ccc(-c2cc(Cl)c(Cl)c(Cl)c2Cl)cc1 [PCB 114]	≤ 0.00007		≥ 5000	≥ 0.5	0.00004															
Clc1ccc(-c2ccc(Cl)c(Cl)c2)cc1Cl [PCB 77]	≤ 0.00009		≥ 4000	≥ 3.3	0.0003															
